From patent publication US20240383904A1, “HETEROCYCLIC COMPOUNDS” (Hoffmann-La Roche Inc., priority 2021, published 2024)

The compounds below were run against T1, MAGL (Homo sapiens, UniProt Q99685) (assay: 2-AG assay: MAGL inhibitory activity by hydrolysis of 2-arachidonoylglycerol to arachidonic acid, followed by mass spectrometry). Details: 15 min preincubation, 30 min reaction at RT, 8 μM 2-arachidonoylglycerol.
T1 sequence (Q99685 1-303): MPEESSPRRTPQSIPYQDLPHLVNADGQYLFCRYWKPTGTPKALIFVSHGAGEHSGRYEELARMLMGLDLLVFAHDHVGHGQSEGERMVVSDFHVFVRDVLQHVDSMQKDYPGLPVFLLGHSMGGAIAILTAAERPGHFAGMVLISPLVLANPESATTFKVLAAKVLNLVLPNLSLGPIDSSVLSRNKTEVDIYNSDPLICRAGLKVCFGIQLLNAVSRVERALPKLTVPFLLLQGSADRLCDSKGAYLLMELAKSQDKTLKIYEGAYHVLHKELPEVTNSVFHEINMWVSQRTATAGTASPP
Assay type: biochemical
From the text: Compounds of formula (I) were profiled for MAGL inhibitory activity by determining the enzymatic activity by following the hydrolysis of the natural substrate 2-arachidonoylglycerol (2-AG) resulting in arachidonic acid, which can be followed by mass spectrometry. This assay is hereinafter abbreviated “2-AG assay”.
Compounds of formula (I) were profiled for MAGL inhibitory activity by determining the enzymatic activity by following the hydrolysis of the natural substrate 2-arachidonoylglycerol (2-AG) resulting in arachidonic acid, which can be followed by mass spectrometry. This assay is hereinafter abbreviated “2-AG assay”. The 2-AG assay was carried out in 384 well polypropylene assay plates. Compound dilutions were made in 100% DMSO in a polypropylene plate in 3-fold dilution steps to give a final concentration range in the assay from 12.5 μM to […]. Compound dilutions were added to MAGL protein in assay buffer (50 mM TRIS, 1 mM EDTA, 0.01% (v/v) Tween-20, 2.5% (v/v) DMSO). After shaking, the plate was incubated for 15 min at RT. To start the reaction, 2-arachidonoylglycerol in assay buffer was added. The final concentrations in the assay was […] for MAGL protein and 8 μM 2-arachidonoylglyerol. After shaking and 30 min incubation at RT, the reaction was quenched by the addition of two assay volumes of acetonitrile containing 4 μM of d8-arachidonic acid. The amount of arachidonic acid formed was traced by an online SPE system (Agilent Rapidfire) coupled to a triple quadrupole mass spectrometer. A C18 SPE cartridge (Agilent G9205A) was used in an acetonitrile/water liquid setup. The mass spectrometer was operated in negative electrospray mode following the mass transitions 303.1→259.1 for arachidonic acid and 311.1→267.0 for d8-arachidonic acid. The activity of the compounds was calculated based on the ratio of intensities [arachidonic acid/d 8-arachidonic acid].

Row | Structure (SMILES) | IC50
1 | O=C1NC2(CO1)CN(C(=O)N1CC3(CC(Cc4ccc(OC(F)(F)F)cn4)C3)C1)C2 [Example 26, 2-[6-[[5-(trifluoromethoxy)-2-pyridyl]methyl]-2-azaspiro[3.3]heptane-2-carbonyl]-7-oxa-2,5-diazaspiro[3.4]octan-6-one] | 0.11 nM
2 | O=C1NC2(CO1)CN(C(=O)N1CC3(CC(Cc4ncc(C(F)(F)F)cc4F)C3)C1)C2 [Example 28, 2-[6-[[3-fluoro-5-(trifluoromethyl)-2-pyridyl]methyl]-2-azaspiro[3.3]heptane-2-carbonyl]-7-oxa-2,5-diazaspiro[3.4]octan-6-one] | 0.23 nM
3 | CS(=O)(=O)c1cc(F)cc(CC2CC3(C2)CN(C(=O)N2CC4(COC(=O)N4)C2)C3)c1 [Example 30, 2-[6-(3-fluoro-5-mesyl-benzyl)-2-azaspiro[3.3]heptane-2-carbonyl]-7-oxa-2,5-diazaspiro[3.4]octan-6-one] | 0.45 nM
4 | O=C1NC2(CO1)CN(C(=O)N1CC3(CC(Cc4ccc(F)cn4)C3)C1)C2 [Example 31, 2-[6-[(5-fluoro-2-pyridyl)methyl]-2-azaspiro[3.3]heptane-2-carbonyl]-7-oxa-2,5-diazaspiro[3.4]octan-6-one] | 0.61 nM
5 | O=C1NC2(CO1)CN(C(=O)N1CC3(CC(Cc4cnc(C(F)(F)F)nc4)C3)C1)C2 [Example 32, 2-[6-[[2-(trifluoromethyl)pyrimi-din-5-y1]methyl]-2-azaspiro[3.3]heptane-2-carbonyl]-7-oxa-2,5-diazaspiro[3.4]octan-6-one] | 0.67 nM
6 | O=C1NC2(CO1)CN(C(=O)N1CC3(CC(Cc4ccc(C(F)(F)F)nn4)C3)C1)C2 [Example 36, 2-[6-[[6-(trifluoromethyl)pyrida-zin-3-yl]methyl]-2-azaspiro[3.3]heptane-2-carbonyl]-7-oxa-2,5-diazaspiro[3.4]octan-6-one] | 1.43 nM
7 | O=C1NC2(CO1)CN(C(=O)N1CC3(CC(Cc4cncc(F)c4)C3)C1)C2 [Example 37, 2-[6-[(5-fluoro-3-pyridyl)methyl]-2-azaspiro[3.3]heptane-2-carbonyl]-7-oxa-2,5-diazaspiro[3.4]octan-6-one] | 1.91 nM
8 | O=C1NCC2(CN(C(=O)N3CC4(CC(Cc5ccc(F)cc5F)C4)C3)C2)N1 [Example 38, 2-[6-(2,4-difluorobenzyl)-2-azaspiro[3.3]heptane-2-carbonyl]-2,5,7-triazaspiro[3.4]octan-6-one] | 2.34 nM
9 | O=C1NCC2(CN(C(=O)N3CC4(CC(Cc5ccc(C(F)(F)F)nc5)C4)C3)C2)N1 [Example 42, 2-[6-[[6-(trifluoromethyl)-3-pyridyl]methyl]-2-azaspiro[3.3]heptane-2-carbonyl]-2,5,7-triazaspiro[3.4]octan-6-one] | 53.4 nM
10 | O=C1NC2(CCO1)CN(C(=O)N1CC3(CC(Cc4cnc(C(F)(F)F)cn4)C3)C1)C2 [Example 43, 2-[6-[[5-(trifluoromethyl)pyrazin-2-yl]methyl]-2-azaspiro[3.3]heptane-2-carbonyl]-7-oxa-2,5-diazaspiro[3.5]nonan-6-one] | 646 nM
11 | O=C1NCC2(CN(C(=O)N3CC4(CCC(Cc5ccc(C(F)(F)F)cn5)CC4)C3)C2)N1 [Example 45, 2-[7-[[5-(trifluoromethyl)-2-pyridyl]methyl]-2-azaspiro[3.5]nonane-2-carbonyl]-2,5,7-triazaspiro[3.4]octan-6-one] | 26.3 nM
12 | O=C1NC2(CO1)CN(C(=O)N1CC3(CCC(Cc4ccc(C(F)(F)F)cn4)C3)C1)C2 (stereo not drawn) [Example 46, 2-[6-[[5-(trifluoromethyl)-2-pyridyl]methyl]-2-azaspiro[3.4]octane-2-carbonyl]-7-oxa-2,5-diazaspiro[3.4]octan-6-one] | 0.15 nM
13 | O=C1NC2(CO1)CN(C(=O)N1CC3(CCC(Oc4ccc(C(F)(F)F)nn4)CC3)C1)C2 [Example 47, 2-[7-[6-(trifluoromethyl)pyrida-zin-3-y1]oxy-2-azaspiro[3.5]nonane-2-carbonyl]-7-oxa-2,5-diazaspiro[3.4]octan-6-one] | 2.94 nM
14 | O=C1NC2(CO1)CN(C(=O)N1CC3(CC(c4ccc(S(=O)(=O)C(F)(F)F)cc4)C3)C1)C2 [Example 48, 2-[6-(4-triflylphenyl)-2-azaspiro[3.3]heptane-2-carbonyl]-7-oxa-2,5-diazaspiro[3.4]octan-6-one] | 0.15 nM

Now from value to compound:

Row | IC50 | Structure (SMILES)
15 | 0.05 nM | O=C1NCC2(CN(C(=O)N3CC4(CC(Cc5ccc(C(F)(F)F)cc5F)C4)C3)C2)N1 [Example 25, 2-[6-[2-fluoro-4-(trifluoromethyl)benzyl]-2-azaspiro[3.3]heptane-2-carbonyl]-2,5,7-triazaspiro[3.4]octan-6-one]
16 | 0.14 nM | CS(=O)(=O)c1cc(C(F)(F)F)ccc1CC1CC2(C1)CN(C(=O)N1CC3(COC(=O)N3)C1)C2 [Example 27, 2-[6-[2-mesy1-4-(trifluoromethyl)benzyl]-2-azaspiro[3.3]heptane-2-carbonyl]-7-oxa-2,5-diazaspiro[3.4]octan-6-one]
17 | 0.34 nM | CS(=O)(=O)c1cc(CC2CC3(C2)CN(C(=O)N2CC4(COC(=O)N4)C2)C3)ccc1C(F)(F)F [Example 29, 2-[6-[3-mesyl-4-(trifluoromethyl)benzyl]-2-azaspiro[3.3]heptane-2-carbonyl]-7-oxa-2,5-diazaspiro[3.4]octan-6-one]
18 | 0.87 nM | CS(=O)(=O)c1cccc(CC2CC3(C2)CN(C(=O)N2CC4(COC(=O)N4)C2)C3)c1 [Example 33, 2-[6-(3-mesylbenzyl)-2-azaspiro[3.3]heptane-2-carbonyl]-7-oxa-2,5-diazaspiro[3.4]octan-6-one]
19 | 1.09 nM | O=C1NCC2(CN(C(=O)N3CC4(CC(Cc5ccc(F)cc5C(F)(F)F)C4)C3)C2)N1 [Example 34, 2-[6-[4-fluoro-2-(trifluoromethyl)benzyl]-2-azaspiro[3.3]heptane-2-carbonyl]-2,5,7-triazaspiro[3.4]octan-6-one]
20 | 1.43 nM | CS(=O)(=O)c1cc(C(F)(F)F)ccc1CC1CC2(C1)CN(C(=O)N1CC3(CCC(=O)N3)C1)C2 [Example 35, 2-[6-[2-mesyl-4-(trifluoromethyl)benzyl]-2-azaspiro[3.3]heptane-2-carbonyl]-2,5-diazaspiro[3.4]octan-6-one]
21 | 2.38 nM | CS(=O)(=O)c1ccc(CC2CC3(C2)CN(C(=O)N2CC4(CCC(=O)N4)C2)C3)cc1C(F)(F)F [Example 39, 2-[6-[4-mesy1-3-(trifluoromethyl)benzyl]-2-azaspiro[3.3]heptane-2-carbonyl]-2,5-diazaspiro[3.4]octan-6-one]
22 | 3.04 nM | CS(=O)(=O)c1cc(CC2CC3(C2)CN(C(=O)N2CC4(CCC(=O)N4)C2)C3)ccc1C(F)(F)F [Example 40, 2-[6-[3-mesyl-4-(trifluoromethyl)benzyl]-2-azaspiro[3.3]heptane-2-carbonyl]-2,5-diazaspiro[3.4]octan-6-one]
23 | 5.52 nM | CS(=O)(=O)c1cc(F)ccc1CC1CC2(C1)CN(C(=O)N1CC3(CCC(=O)N3)C1)C2 [Example 41, 2-[6-(4-fluoro-2-mesyl-benzyl)-2-azaspiro[3.3]heptane-2-carbonyl]-2,5-diazaspiro[3.4]octan-6-one]
24 | 0.32 nM | CS(=O)(=O)c1ccc(CC2CC3(C2)CN(C(=O)N2CC4(COC(=O)N4)C2)C3)cc1C(F)(F)F [Example 44, 2-[6-[4-mesyl-3-(trifluoromethyl)benzyl]-2-azaspiro[3.3]heptane-2-carbonyl]-7-oxa-2,5-diazaspiro[3.4]octan-6-one]
